Reference: ChEMBL document CHEMBL5465560, “Selectivity Literature for EUbOPEN Chemogenomic Library” (2024)

Legend:
[1] = target: T1, Cytoplasmic tyrosine-protein kinase BMX (Homo sapiens) (UniProt P51813); test: Selectivity interaction (KinomeScan (DiscoverX)) EUB0001079a BMX; conditions: at 1 µM
T1 sequence (whole entry): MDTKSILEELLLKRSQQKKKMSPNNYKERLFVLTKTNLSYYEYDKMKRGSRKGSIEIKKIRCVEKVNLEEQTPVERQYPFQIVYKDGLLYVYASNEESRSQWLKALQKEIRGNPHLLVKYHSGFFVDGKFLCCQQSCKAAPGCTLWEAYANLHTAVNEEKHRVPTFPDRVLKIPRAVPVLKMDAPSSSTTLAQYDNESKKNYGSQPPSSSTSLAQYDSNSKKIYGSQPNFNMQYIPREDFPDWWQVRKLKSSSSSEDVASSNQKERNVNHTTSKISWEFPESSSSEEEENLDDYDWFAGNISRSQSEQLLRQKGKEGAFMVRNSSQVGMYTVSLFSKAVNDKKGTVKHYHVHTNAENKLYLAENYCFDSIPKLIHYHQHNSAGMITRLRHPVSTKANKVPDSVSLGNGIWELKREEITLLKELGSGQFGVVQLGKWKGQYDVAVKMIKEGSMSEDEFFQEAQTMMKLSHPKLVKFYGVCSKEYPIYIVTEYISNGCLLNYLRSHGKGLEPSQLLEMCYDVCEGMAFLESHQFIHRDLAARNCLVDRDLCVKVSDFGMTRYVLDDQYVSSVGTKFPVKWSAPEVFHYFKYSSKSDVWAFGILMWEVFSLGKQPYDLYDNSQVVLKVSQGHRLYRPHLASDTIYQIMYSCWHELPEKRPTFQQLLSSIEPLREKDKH

[2] = target: T2, Ephrin type-A receptor 3 (Homo sapiens) (UniProt P29320); test: Selectivity interaction (Kinase panel (Invitrogen)) EUB0000639a EPHA3; conditions: at 200 nM
T2 sequence (whole entry): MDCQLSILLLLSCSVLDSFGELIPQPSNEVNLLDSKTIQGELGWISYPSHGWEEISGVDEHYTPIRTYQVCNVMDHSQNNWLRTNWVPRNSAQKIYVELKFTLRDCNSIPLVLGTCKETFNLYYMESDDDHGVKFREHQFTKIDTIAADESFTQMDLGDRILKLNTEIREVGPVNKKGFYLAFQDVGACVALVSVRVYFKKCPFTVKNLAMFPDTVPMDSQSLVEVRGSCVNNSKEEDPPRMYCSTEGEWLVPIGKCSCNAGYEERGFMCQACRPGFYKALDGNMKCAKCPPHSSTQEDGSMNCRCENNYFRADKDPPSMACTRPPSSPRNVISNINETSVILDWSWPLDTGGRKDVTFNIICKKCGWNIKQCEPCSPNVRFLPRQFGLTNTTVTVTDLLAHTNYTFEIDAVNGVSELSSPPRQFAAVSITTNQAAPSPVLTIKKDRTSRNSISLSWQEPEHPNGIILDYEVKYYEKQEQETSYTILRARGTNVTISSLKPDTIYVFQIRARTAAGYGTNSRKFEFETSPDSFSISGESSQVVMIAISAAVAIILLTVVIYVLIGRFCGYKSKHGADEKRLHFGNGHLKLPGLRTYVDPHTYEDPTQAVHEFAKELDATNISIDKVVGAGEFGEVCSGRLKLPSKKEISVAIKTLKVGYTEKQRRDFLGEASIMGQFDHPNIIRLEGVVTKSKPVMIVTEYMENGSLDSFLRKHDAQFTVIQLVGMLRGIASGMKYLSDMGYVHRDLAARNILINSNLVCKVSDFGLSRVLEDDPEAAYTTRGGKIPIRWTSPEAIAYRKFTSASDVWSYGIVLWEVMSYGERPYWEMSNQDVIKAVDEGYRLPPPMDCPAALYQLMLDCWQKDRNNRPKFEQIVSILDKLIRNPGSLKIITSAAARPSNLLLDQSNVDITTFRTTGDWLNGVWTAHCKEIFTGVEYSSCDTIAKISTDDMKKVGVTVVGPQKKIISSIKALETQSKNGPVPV

[3] = target: T3, Serine/threonine-protein kinase NLK (Homo sapiens) (UniProt Q9UBE8); test: Selectivity interaction (Ambit KINOMEscan and KiNATiv profiling in Jurkat cells) EUB0000090b NLK; format: cell-based; conditions: at 1 µM
T3 sequence (whole entry): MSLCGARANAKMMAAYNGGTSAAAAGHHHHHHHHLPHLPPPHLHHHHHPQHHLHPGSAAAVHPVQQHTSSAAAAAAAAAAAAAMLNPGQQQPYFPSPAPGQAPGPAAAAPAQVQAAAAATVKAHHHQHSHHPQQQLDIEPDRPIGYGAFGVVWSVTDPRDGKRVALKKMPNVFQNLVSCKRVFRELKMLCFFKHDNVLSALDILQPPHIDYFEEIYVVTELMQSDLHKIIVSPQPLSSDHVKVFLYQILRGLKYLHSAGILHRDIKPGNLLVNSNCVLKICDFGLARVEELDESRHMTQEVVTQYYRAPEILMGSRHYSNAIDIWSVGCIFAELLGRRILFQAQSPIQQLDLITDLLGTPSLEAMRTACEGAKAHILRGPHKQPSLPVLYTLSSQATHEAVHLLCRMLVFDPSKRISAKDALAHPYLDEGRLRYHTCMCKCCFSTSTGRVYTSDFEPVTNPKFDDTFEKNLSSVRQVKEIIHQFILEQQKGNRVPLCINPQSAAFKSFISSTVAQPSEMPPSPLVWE

[4] = target: Mitogen-activated protein kinase 4 (Homo sapiens) (UniProt P31152); test: Selectivity interaction (KinomeScan (DiscoverX)) EUB0000045b MAPK4
[5] = target: T4, Testis-specific serine/threonine-protein kinase 2 (Homo sapiens) (UniProt Q96PF2); test: Selectivity interaction (Upstate Kinase Profiler service (Millipore)) EUB0000056c TSSK2; conditions: at 1 µM
T4 sequence (whole entry): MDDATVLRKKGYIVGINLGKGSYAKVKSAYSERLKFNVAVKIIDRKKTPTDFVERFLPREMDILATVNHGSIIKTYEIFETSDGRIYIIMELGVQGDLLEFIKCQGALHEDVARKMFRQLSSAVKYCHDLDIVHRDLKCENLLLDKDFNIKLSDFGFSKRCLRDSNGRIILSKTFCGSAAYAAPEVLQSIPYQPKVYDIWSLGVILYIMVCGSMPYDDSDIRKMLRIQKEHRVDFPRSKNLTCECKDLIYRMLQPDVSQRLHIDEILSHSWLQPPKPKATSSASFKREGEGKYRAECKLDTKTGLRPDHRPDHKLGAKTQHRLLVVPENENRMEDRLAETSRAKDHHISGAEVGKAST

[6] = target: Acetylcholine receptor subunit alpha (Homo sapiens, UniProt P02708); test: Selectivity interaction (Panel of kinases, GPCRs, ion channels and transporters (enzymatic assay)) EUB0000266bCl CHRNA1
[7] = target: Receptor-interacting serine/threonine-protein kinase 2 (Homo sapiens, UniProt O43353); test: Selectivity interaction (KinomeScan (DiscoverX)) EUB0000607a RIPK2; conditions: at 10 µM
[8] = target: [Pyruvate dehydrogenase (acetyl-transferring)] kinase isozyme 1, mitochondrial (Homo sapiens, UniProt Q15118); test: Selectivity interaction (ProQinase) EUB0000171b PDK1

Chain of Mitogen-activated protein kinase 4 (Homo sapiens) (P31152 whole entry): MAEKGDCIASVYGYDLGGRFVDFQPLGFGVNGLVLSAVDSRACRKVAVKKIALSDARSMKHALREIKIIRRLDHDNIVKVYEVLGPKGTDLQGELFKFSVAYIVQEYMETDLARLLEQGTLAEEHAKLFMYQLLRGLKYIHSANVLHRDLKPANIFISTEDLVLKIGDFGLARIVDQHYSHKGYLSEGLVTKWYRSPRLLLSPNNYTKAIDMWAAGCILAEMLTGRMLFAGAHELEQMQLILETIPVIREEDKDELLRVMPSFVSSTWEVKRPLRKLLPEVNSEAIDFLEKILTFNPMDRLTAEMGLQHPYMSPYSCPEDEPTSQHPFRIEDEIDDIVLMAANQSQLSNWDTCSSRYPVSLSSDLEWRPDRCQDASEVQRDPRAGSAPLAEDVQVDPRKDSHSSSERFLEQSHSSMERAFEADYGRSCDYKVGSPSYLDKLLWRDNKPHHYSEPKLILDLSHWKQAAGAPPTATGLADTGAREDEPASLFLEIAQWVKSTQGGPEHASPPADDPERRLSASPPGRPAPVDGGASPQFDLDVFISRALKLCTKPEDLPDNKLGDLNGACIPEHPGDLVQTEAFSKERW
Chain of Receptor-interacting serine/threonine-protein kinase 2 (O43353 whole entry): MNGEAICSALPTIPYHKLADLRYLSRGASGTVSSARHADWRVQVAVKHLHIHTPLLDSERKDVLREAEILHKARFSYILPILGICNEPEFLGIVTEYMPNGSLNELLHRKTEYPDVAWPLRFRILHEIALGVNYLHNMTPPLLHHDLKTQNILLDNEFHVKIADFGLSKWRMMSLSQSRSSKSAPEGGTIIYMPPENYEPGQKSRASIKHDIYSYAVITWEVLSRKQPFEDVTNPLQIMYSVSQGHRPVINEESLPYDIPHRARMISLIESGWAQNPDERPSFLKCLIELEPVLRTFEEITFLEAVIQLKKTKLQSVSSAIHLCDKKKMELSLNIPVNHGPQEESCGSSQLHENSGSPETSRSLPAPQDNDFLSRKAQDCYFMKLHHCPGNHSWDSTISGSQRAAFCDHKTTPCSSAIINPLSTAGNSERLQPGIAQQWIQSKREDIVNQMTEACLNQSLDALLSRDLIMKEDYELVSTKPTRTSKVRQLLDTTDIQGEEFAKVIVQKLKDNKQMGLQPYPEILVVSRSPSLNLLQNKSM
Chain of Acetylcholine receptor subunit alpha (P02708 whole entry): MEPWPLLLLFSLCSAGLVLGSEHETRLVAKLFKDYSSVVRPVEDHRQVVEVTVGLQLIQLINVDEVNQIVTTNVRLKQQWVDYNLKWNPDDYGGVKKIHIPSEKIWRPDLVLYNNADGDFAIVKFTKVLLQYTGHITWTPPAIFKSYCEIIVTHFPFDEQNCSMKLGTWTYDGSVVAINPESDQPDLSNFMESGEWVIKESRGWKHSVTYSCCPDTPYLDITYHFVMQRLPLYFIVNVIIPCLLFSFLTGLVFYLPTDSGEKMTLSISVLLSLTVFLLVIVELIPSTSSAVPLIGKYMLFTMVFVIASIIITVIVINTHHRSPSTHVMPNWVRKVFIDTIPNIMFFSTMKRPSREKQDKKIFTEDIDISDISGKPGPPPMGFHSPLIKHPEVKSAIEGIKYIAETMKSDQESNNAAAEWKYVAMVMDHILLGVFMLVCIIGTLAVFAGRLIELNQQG

SMILES: Nc1cnc(N2CCc3cc(S(=O)(=O)Nc4c(F)cc(Cl)cc4F)cc(N4CCCC4=O)c32)nc1 [TP-020n]
- % of control [1]: 100%

SMILES: CC[C@@H]1[C@H](F)C(=O)N[C@@H]1COc1nccc2cc(C(N)=O)c(OC)cc12 [ZIMLOVISERTIB]
- % of inhibition [2]: 0.984%

SMILES: CN(C)C/C=C/C(=O)Nc1ccc(C(=O)N2CCCC(Nc3ncc(Cl)c(-c4c[nH]c5ccccc45)n3)C2)cc1 (stereo not given)
- % of control [3]: 52%

SMILES: C=CC(=O)Nc1cc(-n2c(=O)ccc3cnc4ccc(-c5ccc(NS(C)(=O)=O)cc5)cc4c32)ccc1C
- % of control ([4]; at 1 µM): 91%
- % of control ([4]; at 10 µM): 100%

SMILES: Cc1ccc(-c2ccc3c(ccc4sc5c(c43)NC[C@@H](C)NC5=O)n2)cn1
- % of inhibition [5]: 4%

SMILES: CCn1c(-c2nc3cc(C(=O)N4CCCC(N)C4)ccc3n2C)cc2ccccc21 (stereo not given)
- pXC50 [6]: < 4.8 M

SMILES: CNC(=O)Nc1ccc(-c2nc(N3CC4CCC(C3)O4)c3cnn(C4CCC5(CC4)OCCO5)c3n2)cc1
- % of control [7]: 71%

SMILES: C=CC(=O)Nc1cccc(C(=O)Nc2ccc(Nc3cc(-c4[nH]c(SC)nc4C)ccn3)cc2)c1
- % of control ([8]; at 1 µM): 74%
- % of control ([8]; at 5 µM): 39%
